Test results published in PMC6887723, “Design and Synthesis of 4-(Heterocyclic Substituted Amino)-1H-Pyrazole-3-Carboxamide Derivatives and Their Potent Activity against Acute Myeloid Leukemia (AML)” (International Journal of Molecular Sciences, 2019).

How the values were obtained:
CDK1/cyclin B = target: T1, CDK1/cyclin B (Homo sapiens, UniProt P06493); test: Hot-Spot kinase profiling; type: biochemical
T1 construct: purchased Reaction Biology Corp
Protocol: (§1) Activities of kinases were determined using Hot-SpotSM kinase assay which was performed by Reaction Biology Corp. (Malvern PA, USA) as described previously.

AKT1 = target: T2, AKT1 (Homo sapiens, UniProt P31749); test: Hot-Spot kinase profiling; type: biochemical; conditions: read-out: % Enzyme Activity (Relative to DMSO Controls) AKT1
T2 construct: purchased Reaction Biology Corp. (HotSpot kinase assay)
Protocol: as §1

FLT3 (D835Y) = target: T3, FLT3 (D835Y) (Homo sapiens, UniProt P36888, D835Y); test: Hot-Spot kinase profiling; type: biochemical
T3 construct: purchased Reaction Biology Corp
Protocol: as §1

FLT3 (ITD)-NPOS = FLT3 (ITD)-NPOS (Homo sapiens, UniProt P36888, ITD); test: Hot-Spot kinase profiling; type: biochemical
Protocol: as §1

c-Src = target: T4, c-Src (Homo sapiens, UniProt P12931); test: Hot-Spot kinase profiling; type: biochemical; conditions: read-out: % Enzyme Activity (Relative to DMSO Controls) c-Src
T4 construct: purchased Reaction Biology Corp. (HotSpot kinase assay)
Protocol: as §1

CDK3/cyclin E = target: T5, CDK3/cyclin E (Homo sapiens, UniProt Q00526); test: Hot-Spot kinase profiling; type: biochemical
T5 construct: purchased Reaction Biology Corp
Protocol: as §1

CDK2/cyclin A = target: T6, CDK2/cyclin A (Homo sapiens, UniProt P24941); test: Hot-Spot kinase profiling; type: biochemical
T6 construct: purchased Reaction Biology Corp
Protocol: as §1

KDR/VEGFR2 = target: T7, KDR/VEGFR2 (Homo sapiens, UniProt P35968); test: Hot-Spot kinase profiling; type: biochemical
T7 construct: purchased Reaction Biology Corp. (Malvern PA, USA)
Protocol: as §1

SYK = target: T8, SYK (Homo sapiens, UniProt P43405); test: Hot-Spot kinase profiling; type: biochemical; conditions: read-out: % Enzyme Activity (Relative to DMSO Controls) SYK
T8 construct: purchased Reaction Biology Corp. (Malvern PA, USA)
Protocol: as §1

CDK6/cyclin D1 = target: T9, CDK6/cyclin D1 (Homo sapiens, UniProt Q00534); test: Hot-Spot kinase profiling; type: biochemical
T9 construct: purchased Reaction Biology Corp
Protocol: as §1

c-MET = target: T10, c-MET (Homo sapiens, UniProt P08581); test: Hot-Spot kinase profiling; type: biochemical; conditions: read-out: % Enzyme Activity (Relative to DMSO Controls) c-MET
T10 construct: purchased Reaction Biology Corp. (HotSpot kinase assay)
Protocol: as §1

FLT3 (R595_E596insEY) = target: T11, FLT3 (R595_E596insEY) (Homo sapiens, UniProt P36888, INS595EY); test: Hot-Spot kinase profiling; type: biochemical
T11 construct: purchased Reaction Biology Corp
Protocol: as §1

BTK = target: T12, BTK (Homo sapiens, UniProt Q06187); test: Hot-Spot kinase profiling; type: biochemical; conditions: read-out: % Enzyme Activity (Relative to DMSO Controls) BTK
T12 construct: purchased Reaction Biology Corp. (HotSpot kinase assay)
Protocol: as §1

CDK5/p35 = target: T13, CDK5/p35 (Homo sapiens, UniProt Q00535); test: Hot-Spot kinase profiling; type: biochemical
T13 construct: purchased Reaction Biology Corp
Protocol: as §1

[1] = test system: phosphorylation of the FLT3; test: Western blot, phosphorylation of FLT3 in MV4-11 cells; type: cell-based, human; conditions: MV4-11, 4 h, 1 μM; dose-dependent, more potent than sorafenib
Protocol: Analysis of pFLT3, pSTAT5, pERK, pAKT, and pRb in vitro: to determine the levels of pFLT3, pSTAT5, pERK, pAKT, and pRb, cells were seeded in a 6-well cell culture plate at a density of 400,000 cells per well for MV4-11 in a total volume of 1800 μL and incubated overnight in medium containing 10% fetal bovine serum (Life Technologies, Rockville, MD, USA). Then 200 μL of serially diluted compounds were added to each well the next day. Cell lysates were harvested after 4 h and pFLT3, pSTAT5, pERK, pAKT, or pRb were quantified using assay kits for FLT3/Phospho-FLT3Tyr589/591, pSTAT5 (Tyr694)/total STAT5, pRb (Ser807)/total Rb (Nanjin keyGen Biotech Company, Nanjing, China) following the manufacturer’s protocols.

T9 sequence (Q00534 whole entry): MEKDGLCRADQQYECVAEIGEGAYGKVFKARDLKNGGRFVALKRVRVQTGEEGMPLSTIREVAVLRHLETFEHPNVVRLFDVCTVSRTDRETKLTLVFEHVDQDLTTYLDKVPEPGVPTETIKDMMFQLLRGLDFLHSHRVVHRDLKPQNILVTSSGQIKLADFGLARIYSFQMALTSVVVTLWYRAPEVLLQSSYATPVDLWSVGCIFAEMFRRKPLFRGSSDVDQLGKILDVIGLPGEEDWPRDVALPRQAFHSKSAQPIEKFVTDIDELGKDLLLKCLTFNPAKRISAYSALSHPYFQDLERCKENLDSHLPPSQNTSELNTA
T9 sequence (P24385 whole entry partner): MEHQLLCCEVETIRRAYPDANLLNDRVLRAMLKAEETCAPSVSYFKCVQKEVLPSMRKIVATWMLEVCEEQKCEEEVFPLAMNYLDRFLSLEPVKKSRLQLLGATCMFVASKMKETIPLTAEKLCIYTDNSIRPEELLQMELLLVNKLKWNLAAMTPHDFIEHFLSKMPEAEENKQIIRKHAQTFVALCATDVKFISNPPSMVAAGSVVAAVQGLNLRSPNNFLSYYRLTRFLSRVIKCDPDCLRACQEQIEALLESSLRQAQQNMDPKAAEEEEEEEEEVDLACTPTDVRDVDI
T1 sequence (P06493 whole entry): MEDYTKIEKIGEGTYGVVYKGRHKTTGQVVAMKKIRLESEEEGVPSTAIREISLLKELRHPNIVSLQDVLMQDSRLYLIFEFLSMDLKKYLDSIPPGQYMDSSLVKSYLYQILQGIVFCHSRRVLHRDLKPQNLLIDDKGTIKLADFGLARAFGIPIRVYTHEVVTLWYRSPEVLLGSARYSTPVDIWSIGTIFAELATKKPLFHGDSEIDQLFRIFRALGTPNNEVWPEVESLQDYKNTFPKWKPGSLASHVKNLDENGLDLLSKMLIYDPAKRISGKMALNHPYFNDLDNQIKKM
T1 sequence (P14635 whole entry partner): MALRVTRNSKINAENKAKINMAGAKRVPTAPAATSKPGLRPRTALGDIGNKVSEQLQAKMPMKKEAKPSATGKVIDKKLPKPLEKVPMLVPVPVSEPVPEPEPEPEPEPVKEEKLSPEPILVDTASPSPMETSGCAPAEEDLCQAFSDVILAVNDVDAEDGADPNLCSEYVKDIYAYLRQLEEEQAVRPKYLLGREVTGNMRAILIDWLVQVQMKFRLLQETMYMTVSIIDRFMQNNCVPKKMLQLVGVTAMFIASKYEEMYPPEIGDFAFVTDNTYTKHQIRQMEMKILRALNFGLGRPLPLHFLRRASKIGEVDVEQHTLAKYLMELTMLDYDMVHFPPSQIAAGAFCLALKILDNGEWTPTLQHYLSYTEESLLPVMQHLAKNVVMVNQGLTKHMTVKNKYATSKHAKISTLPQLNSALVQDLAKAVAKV
T7 sequence (P35968 20-1356): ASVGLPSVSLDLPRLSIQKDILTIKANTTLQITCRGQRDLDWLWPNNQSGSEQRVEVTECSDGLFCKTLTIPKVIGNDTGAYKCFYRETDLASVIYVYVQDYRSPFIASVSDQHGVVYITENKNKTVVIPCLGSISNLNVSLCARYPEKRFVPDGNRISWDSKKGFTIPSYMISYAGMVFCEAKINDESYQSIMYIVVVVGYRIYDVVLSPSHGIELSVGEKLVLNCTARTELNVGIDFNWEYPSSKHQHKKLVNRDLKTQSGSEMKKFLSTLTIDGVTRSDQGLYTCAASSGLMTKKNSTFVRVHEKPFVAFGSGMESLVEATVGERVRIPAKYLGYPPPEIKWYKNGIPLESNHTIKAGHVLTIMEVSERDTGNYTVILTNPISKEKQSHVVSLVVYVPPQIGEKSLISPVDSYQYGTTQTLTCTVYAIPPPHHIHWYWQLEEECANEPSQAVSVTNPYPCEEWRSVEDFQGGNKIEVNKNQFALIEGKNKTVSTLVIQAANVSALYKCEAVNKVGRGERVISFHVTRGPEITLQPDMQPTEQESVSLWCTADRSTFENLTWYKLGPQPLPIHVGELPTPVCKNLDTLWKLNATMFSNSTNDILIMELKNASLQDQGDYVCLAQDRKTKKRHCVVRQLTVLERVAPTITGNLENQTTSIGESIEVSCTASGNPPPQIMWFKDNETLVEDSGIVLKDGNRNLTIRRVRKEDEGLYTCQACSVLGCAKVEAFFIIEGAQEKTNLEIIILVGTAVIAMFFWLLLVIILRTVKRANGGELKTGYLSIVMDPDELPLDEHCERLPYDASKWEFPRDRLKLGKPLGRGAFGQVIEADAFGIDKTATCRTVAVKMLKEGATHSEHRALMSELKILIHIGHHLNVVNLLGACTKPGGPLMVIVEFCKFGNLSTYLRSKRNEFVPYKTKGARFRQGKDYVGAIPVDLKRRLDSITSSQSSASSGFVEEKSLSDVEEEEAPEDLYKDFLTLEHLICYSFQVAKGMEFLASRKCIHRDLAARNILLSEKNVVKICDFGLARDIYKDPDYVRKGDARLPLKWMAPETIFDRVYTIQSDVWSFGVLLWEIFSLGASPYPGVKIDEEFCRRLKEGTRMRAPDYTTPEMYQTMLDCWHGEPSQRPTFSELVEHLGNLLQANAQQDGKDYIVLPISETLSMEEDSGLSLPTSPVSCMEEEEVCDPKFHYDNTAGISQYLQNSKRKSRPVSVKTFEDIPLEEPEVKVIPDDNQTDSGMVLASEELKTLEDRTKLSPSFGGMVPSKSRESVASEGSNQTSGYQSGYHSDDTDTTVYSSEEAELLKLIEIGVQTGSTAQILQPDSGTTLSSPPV
T13 sequence (Q00535 whole entry): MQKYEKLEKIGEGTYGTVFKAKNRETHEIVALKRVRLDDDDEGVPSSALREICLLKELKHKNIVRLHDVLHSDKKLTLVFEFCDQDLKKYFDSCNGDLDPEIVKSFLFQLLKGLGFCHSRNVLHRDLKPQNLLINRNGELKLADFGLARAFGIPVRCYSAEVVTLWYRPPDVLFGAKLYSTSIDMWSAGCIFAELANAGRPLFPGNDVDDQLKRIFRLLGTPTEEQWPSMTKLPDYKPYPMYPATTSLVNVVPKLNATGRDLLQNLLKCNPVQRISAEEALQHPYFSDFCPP
T13 sequence (Q15078 whole entry partner): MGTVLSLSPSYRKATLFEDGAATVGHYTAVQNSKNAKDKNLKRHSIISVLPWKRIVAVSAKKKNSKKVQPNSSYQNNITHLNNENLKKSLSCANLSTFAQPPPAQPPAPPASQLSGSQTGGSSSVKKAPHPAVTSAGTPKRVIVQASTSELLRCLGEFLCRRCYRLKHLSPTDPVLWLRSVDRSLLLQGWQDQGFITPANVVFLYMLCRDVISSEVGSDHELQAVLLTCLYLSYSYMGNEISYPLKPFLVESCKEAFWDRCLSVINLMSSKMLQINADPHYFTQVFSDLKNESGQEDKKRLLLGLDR
T5 sequence (Q00526 whole entry): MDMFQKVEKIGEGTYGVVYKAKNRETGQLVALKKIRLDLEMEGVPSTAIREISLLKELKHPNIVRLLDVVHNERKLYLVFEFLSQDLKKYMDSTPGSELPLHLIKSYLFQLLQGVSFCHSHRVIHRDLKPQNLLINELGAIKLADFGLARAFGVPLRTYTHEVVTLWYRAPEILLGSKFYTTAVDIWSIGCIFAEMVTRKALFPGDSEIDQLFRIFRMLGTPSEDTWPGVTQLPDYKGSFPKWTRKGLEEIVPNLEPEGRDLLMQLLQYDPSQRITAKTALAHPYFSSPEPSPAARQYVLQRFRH
T5 sequence (P24864 whole entry partner): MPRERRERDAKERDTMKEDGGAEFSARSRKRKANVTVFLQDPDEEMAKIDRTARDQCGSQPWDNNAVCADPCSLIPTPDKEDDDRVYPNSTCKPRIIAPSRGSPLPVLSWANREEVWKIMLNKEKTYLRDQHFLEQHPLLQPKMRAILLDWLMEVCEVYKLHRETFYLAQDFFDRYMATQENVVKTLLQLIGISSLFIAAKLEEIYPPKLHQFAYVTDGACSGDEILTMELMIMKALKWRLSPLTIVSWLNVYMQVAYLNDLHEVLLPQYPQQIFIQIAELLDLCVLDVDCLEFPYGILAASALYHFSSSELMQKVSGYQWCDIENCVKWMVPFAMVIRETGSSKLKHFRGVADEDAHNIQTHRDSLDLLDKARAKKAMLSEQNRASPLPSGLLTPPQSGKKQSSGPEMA
T2 sequence (P31749 whole entry): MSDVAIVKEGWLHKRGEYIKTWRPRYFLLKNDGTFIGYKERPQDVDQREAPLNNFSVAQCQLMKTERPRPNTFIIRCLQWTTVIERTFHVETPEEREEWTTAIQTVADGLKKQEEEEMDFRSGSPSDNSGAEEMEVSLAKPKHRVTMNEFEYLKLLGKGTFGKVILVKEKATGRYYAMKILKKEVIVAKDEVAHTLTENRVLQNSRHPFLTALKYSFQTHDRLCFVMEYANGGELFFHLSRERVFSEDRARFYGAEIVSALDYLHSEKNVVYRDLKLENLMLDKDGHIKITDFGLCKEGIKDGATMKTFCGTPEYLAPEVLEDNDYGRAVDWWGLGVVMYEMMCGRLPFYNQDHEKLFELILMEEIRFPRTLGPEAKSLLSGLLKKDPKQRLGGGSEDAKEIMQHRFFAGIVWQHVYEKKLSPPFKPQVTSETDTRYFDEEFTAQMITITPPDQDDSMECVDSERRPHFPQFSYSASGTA

- remaining activity at 0.15 µM (CDK1/cyclin B; 0.15 μM, read-out: % Enzyme Activity (Relative to DMSO Controls) CDK1/cyclin B): 18.2%
- IC50 (CDK1/cyclin B; Table 5 kinase profiling): 138 ± 1.24 nM
- remaining activity at 0.15 µM (AKT1): 122%
- remaining activity at 0.15 µM (FLT3 (D835Y); 0.15 μM, read-out: % Enzyme Activity (Relative to DMSO Controls) FLT3 (D835Y)): 0.27%
- IC50 (FLT3 (D835Y); Table 5 kinase profiling): 0.75 ± 0.04 nM
- remaining activity at 0.15 µM (FLT3 (ITD)-NPOS; 0.15 μM, read-out: % Enzyme Activity (Relative to DMSO Controls) FLT3 (ITD)-NPOS): 1.38%
- IC50 (FLT3 (ITD)-NPOS; Table 5 kinase profiling): 4.32 ± 0.23 nM
- remaining activity at 0.15 µM (c-Src): 73.8%
- remaining activity at 0.15 µM (CDK3/cyclin E; 0.15 μM, read-out: % Enzyme Activity (Relative to DMSO Controls) CDK3/cyclin E): 5.94%
- IC50 (CDK3/cyclin E; Table 5 kinase profiling): 6.88 ± 0.25 nM
- remaining activity at 0.15 µM (CDK2/cyclin A; 0.15 μM, read-out: % Enzyme Activity (Relative to DMSO Controls) CDK2/cyclin A): 4.01%
- IC50 (CDK2/cyclin A; Table 5 kinase profiling): 2.56 ± 0.31 nM
- remaining activity at 0.15 µM (KDR/VEGFR2; 0.15 μM, read-out: % Enzyme Activity (Relative to DMSO Controls) KDR/VEGFR2): 7.29%
- IC50 (KDR/VEGFR2; Table 5 kinase profiling): 8.32 ± 0.54 nM
- remaining activity at 0.15 µM (SYK): 35.4%
- remaining activity at 0.15 µM (CDK6/cyclin D1; 0.15 μM, read-out: % Enzyme Activity (Relative to DMSO Controls) CDK6/cyclin D1): 1.33%
- IC50 (CDK6/cyclin D1; Table 5 kinase profiling): 0.59 ± 0.09 nM
- remaining activity at 0.15 µM (c-MET): 99%
- remaining activity at 0.15 µM (FLT3 (R595_E596insEY); 0.15 μM, read-out: % Enzyme Activity (Relative to DMSO Controls) FLT3 (R595_E596insEY)): 0.44%
- IC50 (FLT3 (R595_E596insEY); Table 5 kinase profiling): 1.59 ± 0.14 nM
- remaining activity at 0.15 µM (BTK): 97.1%
- remaining activity at 0.15 µM (CDK5/p35; 0.15 μM, read-out: % Enzyme Activity (Relative to DMSO Controls) CDK5/p35): 9.6%
- IC50 (CDK5/p35; Table 5 kinase profiling): 9.64 ± 0.81 nM
Compound: O=C(Nc1ccc(N2CCNCC2)cc1)c1n[nH]cc1Nc1ncnc2sc3c(c12)CCC3 [Compound 8t]
- phosphorylation of the FLT3 [1]: eliminated
